Data reported in PubChem BioAssay (NCI).
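Assay format: 96-well plates, 48-hour exposure. GI50 is the concentration that inhibits growth by half. Definition used: TGI = concentration required for complete inhibition of growth.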

Tests used:
Experiment in all cases: NCI tumour cell line growth inhibition, 48 h
COLO 205 colon = test system: COLO 205 colon
HCT-116 colon = test system: HCT-116 colon
MDA-MB-435 = test system: MDA-MB-435
OVCAR-8 ovarian = test system: OVCAR-8 ovarian
RXF 393 renal = test system: RXF 393 renal
SF-268 CNS = test system: SF-268 CNS
SF-539 CNS = test system: SF-539 CNS
SK-OV-3 ovarian = test system: SK-OV-3 ovarian

Row | Compound | GI50 (COLO 205 colon) [µM] | TGI (COLO 205 colon) [µM] | GI50 (HCT-116 colon) [µM] | TGI (HCT-116 colon) [µM] | GI50 (MDA-MB-435) [µM] | TGI (MDA-MB-435) [µM] | GI50 (OVCAR-8 ovarian) [µM] | TGI (OVCAR-8 ovarian) [µM] | GI50 (RXF 393 renal) [µM] | TGI (RXF 393 renal) [µM] | GI50 (SF-268 CNS) [µM] | TGI (SF-268 CNS) [µM] | GI50 (SF-539 CNS) [µM] | TGI (SF-539 CNS) [µM] | GI50 (SK-OV-3 ovarian) [µM] | TGI (SK-OV-3 ovarian) [µM]
1 | CC(C)(C)c1ccc(S(=O)(=O)Oc2ccc3c4c(c(=O)oc3c2)CCCCC4)cc1 | 14.4 | > 100 | 7.06 | > 100 | 34.6 | > 100 | 21.8 | > 100 | 17.8 | 63.5 | 39.7 | > 100 | 24.2 | > 100 | 19.7 | 52.2
2 | C=C=C(CC1CCCCC1=O)S(=O)(=O)c1ccccc1 (stereo not given) |  | > 10 |  | > 4.94 |  | > 10 |  | > 10 |  | > 10 |  | > 10 |  | > 10 |  | > 10
3 | COc1cc(/C=C\c2cc(OC)c(OC)c(OC)c2)cc(N/C=C\C(=O)c2ccc(OC(F)(F)F)cc2)c1OC | 2.98 | 9.37 | 3.58 | > 100 | 1.84 | 5.52 | 4.59 | > 100 | 2.18 | 7.17 | 8.9 | > 100 | 2.21 | 5.92 | 5.38 | > 100
4 | CS(=O)(=O)Nc1cncc(-c2ccc3ncnc(Nc4ccc(F)c(Cl)c4)c3c2)c1 | 1.95 | 5.97 | 1.97 | 5.77 | 3.92 | 17 | 3.73 | 23.7 | 1.49 | 5.87 | 2.63 | 18.7 | 2.24 | 11.3 | 2.09 | 6.54
5 | Fc1cccc(COc2ccc(Nc3ncnc4sc(-c5cccs5)cc34)cc2Cl)c1 | 1.42 | 10.5 | 7.59 | > 23.8 | 3.61 | > 19.1 | 5.5 | > 17.4 | 4.37 | 12 | 11.4 | > 22.8 | 5.55 | 15.3 | 3.47 | 9.69
6 | Cc1cc2nc3c4cc(O)ccc4n(CCN(C)C)c3nc2cc1C | 0.698 | 3.99 | 0.397 | 3.36 | 1.07 | 2.36 | 0.494 | 4.73 | 0.828 | 2.47 | 1.25 | 5.89 | 0.519 | 2.09 | 1.8 | > 61
7 | COc1ccc(C2CC(c3cccc(Nc4ccnc5cc(Cl)ccc45)c3)=NN2C=O)cc1 (stereo not given) | 0.484 | 2.95 | 0.398 | 2.56 | 0.142 | 0.809 | 1.12 | > 100 | 0.883 | 7.39 | 1.37 | > 100 | 0.785 | 8.42 | 0.795 | > 35.6
8 | CC(C)c1[nH]nc(C(N)=O)c1N=NN(C)C |  | > 100 |  | > 100 |  | > 100 |  | > 100 |  | > 100 |  | > 100 |  | > 100 |  | > 100
9 | CC1=CC(=O)C2=C(C)CCC3C(C)C(=O)OC3C12 (stereo not given) |  | > 100 |  | > 100 |  | > 100 |  | > 100 |  | > 100 |  | > 100 |  | > 100 |  | > 100
10 | CC(=O)c1ccc2c(c1)c1cc(C(C)=O)ccc1n2CCNC(C)C | 0.331 | 1.6 | 0.251 | 3.69 | 0.364 | 1.44 | 0.373 | 3.87 | 0.289 | 1.79 | 0.417 | 3.33 | 0.478 | 2.02 | 1.25 | 8.76
11 | CCN(CCCN(C)C)Cc1cc(I)cc(C)c1O | 18.9 | 36.8 | 14.6 | 32 | 15.7 | 31.6 | 34.2 | > 100 | 17.1 | 51.1 | 18.7 | 45.7 | 14.8 | 29 | 35.3 | > 100
12 | NNC(=S)N/N=C(\C(=O)Nc1cccc(O)c1)C1C(=O)NC(=S)NC1=O |  |  |  | > 100 |  | > 100 |  | > 100 |  | > 100 |  | > 100 |  | > 100 |  | > 100
13 | Cc1cc(O)c(=O)cc2c1C[C@H]1CC(C)(C)/C=C/C[C@]3(C)Oc4cc(=O)c(O)cc(C)c4C[C@H]3C[C@H](O)[C@@]1(C)O2 |  |  | < 0.01 | > 100 | < 0.017 |  | < 0.01 | 11.6 |  |  | < 0.01 | > 63.1 | 0.0332 | 58.6 | 0.0181 | 0.412
14 | CCOC(=O)c1ccc(NC(=O)Nc2nncs2)cc1 | 0.174 | 2.63 | 0.109 | 11.8 |  |  | 0.371 | 13.5 | 0.14 | 0.489 | 0.952 | 22.9 | 0.162 | 2.36 | 0.178 | 3.11
15 | Cc1nc2ccc(Nc3nc(Cl)nc(N4CCOCC4)n3)cc2n1Cc1ccccc1 |  |  | 5.16 | 89 | 8.23 | > 100 | 2.95 | > 100 | 1.85 | 3.58 | 3.11 | > 100 | 14.2 | 47.6 | 3.66 | > 100
16 | O=C(CC(Cl)=C(Cl)Cl)Nc1ccccc1 | > 100 | > 100 | > 100 | > 100 |  |  | > 100 | > 100 | > 100 | > 100 | > 100 | > 100 | > 100 | > 100 | > 100 | > 100
17 | CCCNC(=S)/N=C/c1c(O)cc(C)oc1=O |  | > 100 |  | > 100 |  | > 100 |  | > 100 |  |  |  |  |  | > 100 |  | > 100
18 | O=C1CSCc2sccc21 |  | > 100 |  | > 100 |  |  |  | > 100 |  | > 100 |  | > 100 |  | > 100 |  | > 100
